Paper PMC6445242, “Novel tetrazole and cyanamide derivatives as inhibitors of cyclooxygenase-2 enzyme: design, synthesis, anti-inflammatory evaluation, ulcerogenic liability and docking study” (Journal of Enzyme Inhibition and Medicinal Chemistry, 2017)
pIC50: −log10 of the molar value. “Also recorded” adds a separate entry of the source.

How the values were obtained:
[1] = system: carrageenan-induced paw oedema; assay: Carrageenan-induced rat paw oedema; assay type: in vivo; settings: 50 mg/kg oral; for %Inhibition of paw oedema, 1h / Paw thickness change mean ± SEM, 1h: 1 h after carrageenan; for Paw thickness change mean ± SEM, 1h / Paw thickness change mean ± SEM, 3h / Paw thickness change mean ± SEM, 5h: n = 4; for %Inhibition of paw oedema, 3h / Paw thickness change mean ± SEM, 3h: 3 h after carrageenan; for %Inhibition of paw oedema, 5h / Paw thickness change mean ± SEM, 5h: 5 h after carrageenan
Protocol: Female wister rats (150-200 g) were used in this study. The animals were kept at controlled conditions (temperature 23 ± 2 °C, humidity 60 ± 10%) and a 12/12-h light/dark cycle with access to food and water. All procedures relating to animal care and treatments were performed according to protocols approved by the Research Ethical Committee of Faculty of Pharmacy Beni-Suef University (2014-Beni-Suef, Egypt). The anti-inflammatory activity of the synthesised compounds was determined in vivo by […]-induced paw oedema method in rats[49]. Rats were divided into 21 groups of four animals each, and then, they were fasted overnight with free access to water before the experiment. Before any drug administration, thickness of the left hind paw of each rat was measured in millimetres. Group 1 served as a control and administered the vehicle (2.5% Tween 80).

[2] = system: gastric mucosa (ulcer number, ulcer index); assay: Ulcerogenic liability; assay type: in vivo, rat; settings: 50 mg/kg oral, three successive days, rats; for Ulcer index: sum of % incidence, average severity and average number of ulcers
Protocol: Female wister rats (150–200 g) were used in this study. The animals were kept at controlled conditions (temperature 23 ± 2 °C, humidity 60 ± 10%) and a 12/12-h light/dark cycle with access to food and water. All procedures relating to animal care and treatments were performed according to protocols approved by the Research Ethical Committee of Faculty of Pharmacy Beni-Suef University (2014-Beni-Suef, Egypt).
[…]. Forty-eight rats were used in this study, divided into 12 groups and fasted for 18 h before drug administration. The control group received the vehicle (2.5% Tween 80). Other groups received test compounds, celecoxib or indomethacin at a dose of 50 mg/kg, then animals were fed after 2 h. Rats were given the specified dose orally for three successive days. Rats were sacrificed after 2 h of the last dose, then the stomach of each rat was removed and opened along the greater curvature for determination of the ulcer number and ulcer index according to the reported method.

rat's gastric tissue = assay: Histopathological investigation of stomach; assay type: in vivo; settings: haematoxylin and eosin, after ulcerogenic liability dosing
Protocol: Whole rats stomach were collected, selected stomach samples from each rat were fixed in 10% neutral buffered formalin for 48 h and routinely processed for paraffin embedding. 5 μm Thickness sections were obtained then stained with haematoxylin and eosin for histopathological evaluation.

ovine COX-1 = molecular target: T1, ovine COX-1 (Ovis aries, UniProt P05979); assay: In vitro COX-1 inhibition assay (EIA kit, Cayman)
T1 sequence (P05979 25-600): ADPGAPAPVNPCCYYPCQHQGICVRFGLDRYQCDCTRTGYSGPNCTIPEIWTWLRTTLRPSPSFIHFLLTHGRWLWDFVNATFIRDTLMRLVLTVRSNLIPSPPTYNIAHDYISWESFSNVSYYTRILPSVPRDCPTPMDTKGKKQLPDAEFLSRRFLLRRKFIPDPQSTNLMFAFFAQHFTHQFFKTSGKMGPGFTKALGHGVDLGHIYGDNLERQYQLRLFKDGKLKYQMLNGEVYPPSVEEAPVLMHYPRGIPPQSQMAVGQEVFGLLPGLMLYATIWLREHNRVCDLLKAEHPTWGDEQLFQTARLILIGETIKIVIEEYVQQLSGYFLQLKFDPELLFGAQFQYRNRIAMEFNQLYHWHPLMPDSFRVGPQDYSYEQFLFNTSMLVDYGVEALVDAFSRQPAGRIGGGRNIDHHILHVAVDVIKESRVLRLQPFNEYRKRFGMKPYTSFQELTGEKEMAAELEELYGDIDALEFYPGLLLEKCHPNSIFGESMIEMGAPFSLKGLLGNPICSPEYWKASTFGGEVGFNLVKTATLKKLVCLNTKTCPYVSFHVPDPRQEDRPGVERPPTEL
Protocol: (§1) The peroxidase activity of cyclooxygenase enzyme isoforms was measured using the COX activity assay kit. The ability of the test compounds to inhibit both ovine COX-1 and COX-2 enzymes was explored in vitro using a colorimetric enzyme immunoassay (EIA) kit. The appearance of oxidised N,N,N′,N′-tetramethyl-p-phenylenediamine (TMPD) was monitored at 590 nm. The kit includes isozyme-specific inhibitors for distinguishing COX-2 activity from that of COX-1.

ovine COX-2 = molecular target: T2, ovine COX-2 (Ovis aries, UniProt P79208); assay: In vitro COX-2 inhibition assay (EIA kit, Cayman); settings: for pIC50: IC50 COX-2, ovine COX-2, mean of two determinations; for SI, COX-2 selectivity index (COX-1 IC50/COX-2 IC50): ovine enzymes
T2 sequence (P79208 17-603): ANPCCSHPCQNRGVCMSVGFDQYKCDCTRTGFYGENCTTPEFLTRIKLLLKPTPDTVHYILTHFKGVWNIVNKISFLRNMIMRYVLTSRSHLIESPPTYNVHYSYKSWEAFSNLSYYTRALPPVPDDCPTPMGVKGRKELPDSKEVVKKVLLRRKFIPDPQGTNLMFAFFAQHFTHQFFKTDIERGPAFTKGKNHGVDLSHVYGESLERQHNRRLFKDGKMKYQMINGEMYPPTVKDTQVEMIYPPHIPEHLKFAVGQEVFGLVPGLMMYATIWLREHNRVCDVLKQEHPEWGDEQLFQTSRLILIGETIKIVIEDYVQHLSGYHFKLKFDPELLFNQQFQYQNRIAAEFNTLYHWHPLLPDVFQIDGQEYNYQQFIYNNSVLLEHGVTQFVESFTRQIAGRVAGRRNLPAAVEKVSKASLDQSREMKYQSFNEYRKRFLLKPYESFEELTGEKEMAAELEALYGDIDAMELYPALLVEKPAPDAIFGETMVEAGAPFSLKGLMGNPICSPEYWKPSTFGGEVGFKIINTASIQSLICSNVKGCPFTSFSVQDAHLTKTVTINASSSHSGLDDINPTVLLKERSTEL
Protocol: as §1

[3] = system: latency time of pain response; assay: Hot plate method (central analgesic activity); assay type: in vivo; settings: 10 mg/kg oral, mice, hot plate 55 °C, after 60 min
Protocol: This method was used to evaluate the central analgesic activity by determination of the delay in the latency time of pain response. […] After 60 min, the animals were placed on a hot plate maintained at 55 ± 0.5 °C. The reaction time was recorded as the time taken by the animals to […] or lick the fore or hind paw or jump off the plate.

| SMILES | %Inhibition of paw oedema, 1h [1] | Paw thickness change mean ± SEM, 1h [1] | %Inhibition of paw oedema, 3h [1] | Paw thickness change mean ± SEM, 3h [1] | %Inhibition of paw oedema, 5h [1] | Paw thickness change mean ± SEM, 5h [1] | Average number of ulcers [2] | Ulcer index [2] | Histopathological findings in stomach (rat's gastric tissue) | melting point | pIC50 (ovine COX-1) | pIC50 (ovine COX-2) | SI, COX-2 selectivity index (COX-1 IC50/COX-2 IC50) (ovine COX-2) | Central analgesic activity (delay in latency time) [3] |
| --- | --- | --- | --- | --- | --- | --- | --- | --- | --- | --- | --- | --- | --- | --- |
| Cc1ccc(-c2cc(C(F)(F)F)nn2-c2ccc(S(N)(=O)=O)cc2)cc1 [Celecoxib, reference compound] | 76% | 0.38 ± 0.03 mm | 66% | 0.58 ± 0.11 mm | 19% | 1.08 ± 0.13 mm | 0.50 | 0.50 | thickening and hyalinosis of basement membrane with lymphocytic infiltration and minimal congested submucosal blood capillaries |  |  |  |  |  |
| COc1ccc(-c2cc(-c3ccc(-n4cnnn4)cc3)nc(N)c2C#N)cc1OC [Compound 4c, 6-[4-(1H-Tetrazol-1-yl)phenyl]-2-amino-4-(3,4-dimethoxyphenyl)nicotinonitrile] |  | 0.83 ± 0.15 mm | 58% | 0.70 ± 0.11 mm | 8% | 1.23 ± 0.11 mm | 1.75 | 1.75 | mucous degeneration in gastric glandular epithelium reach to coagulative necrosis | 230 to 232 °C | 4.80 | 6.42 | 42.02 |  |
| N#Cc1c(-c2ccccc2)cc(-c2ccc(-n3cnnn3)cc2)[nH]c1=O [Compound 5a, 6-[4-(1H-Tetrazol-1-yl)phenyl]-2-oxo-4-phenyl-1,2-dihydropyridine-3-carbonitrile] | 61% | 0.61 ± 0.08 mm | 54% | 0.63 ± 0.18 mm | 61% | 0.53 ± 0.09 mm | 0.75 | 1.25 | all layers of stomach were more or less normal; also recorded: most preferable compound with minimal drug effect on tissue | 281 to 283 °C | 5.15 | 6.74 | 39.38 |  |
| COc1cc(-c2cc(-c3ccc(-n4cnnn4)cc3)[nH]c(=O)c2C#N)cc(OC)c1OC [Compound 5f, 6-[4-(1H-Tetrazol-1-yl)phenyl]-4-(3,4,5-trimethoxyphenyl)-2-oxo-1,2-dihydropyridine-3-carbonitrile] | 79% | 0.33 ± 0.09 mm | 36% | 1.08 ± 0.10 mm | 30% | 0.93 ± 0.15 mm | 1.25 | 1.25 | affect only muscular layer of the stomach by causing corrugation and hyalinosis in some muscle bundles and reach to coagulative necrosis | > 300 °C | 5.19 |  | 46.07 | potent analgesic activities |
| COc1ccc(C2CC(c3ccc(-n4cnnn4)cc3)=NN2c2ccc(S(C)(=O)=O)cc2)cc1OC (centres unmarked) [Compound 8a, 1-{4-[5-(3,4-Dimethoxyphenyl)-1-(4-(methanesulphonyl)phenyl]-4,5-dihydro-1H-pyrazol-3-yl)phenyl}-1H-tetrazole] | 71–75% |  | 52% | 0.89 ± 0.19 mm | 15% | 1.13 ± 0.11 mm | 1.50 |  | some areas of glandular epithelium were more or less normal associated with sever congested blood capillaries and eosinophilic infiltrations in submucosa |  | 5.06 | 6.49 |  | potent analgesic activities |
| COc1cc(C2CC(c3ccc(-n4cnnn4)cc3)=NN2c2ccc(S(C)(=O)=O)cc2)cc(OC)c1OC (centres unmarked) [Compound 8b] | 71% | 0.45 ± 0.10 mm | 48% | 0.88 ± 0.09 mm | 38% | 0.83 ± 0.17 mm | 0.75 | 0.75 | massive destruction of localised area of epithelium with formation of an erosion associated with hyalinosis and necrosis of muscular layer | 241 to 243 °C | 5.41 |  | 35.18 | potent analgesic activities |
| COc1cc(C2CC(c3ccc(-n4cnnn4)cc3)=NN2c2ccc(S(N)(=O)=O)cc2)cc(OC)c1OC (centres unmarked) [Compound 9b, 4-{3-[4-(1H-Tetrazol-1-yl)phenyl]-5-(3,4,5-trimethoxyphenyl)-4,5-dihydro-1H-pyrazol-1-yl)benzenesulphonamide] | 75% | 0.40 ± 0.11 mm | 40% | 1.00 ± 0.16 mm | 12% | 1.18 ± 0.20 mm | 0.25 |  | Mucous degeneration of glandular epithelium of gastric mucosa, and lymphocytic infiltration and mild congestion in submucosa |  | 5.13 | 6.68 |  |  |
